Experimental data reported in ChEMBL document CHEMBL1138976, “Anti-HIV activity of stilbene-related heterocyclic compounds” (Bioorg Med Chem Lett, 2006).
pIC50: −log10 of the molar value. Active and inactive are the calls of the source. No cut-off for these calls is given here.

What was measured:
[1] = tested on: Human immunodeficiency virus; assay: Ratio of cytotoxic activity to anti HIV activity; assay type: functional
[2] = Cytotoxicity by Propidium Iodide staining
[3] = molecular target: Nuclear factor NF-kappa-B complex (Homo sapiens) (UniProt Q00653+P19838+Q04206); assay: Inhibition of TNFalpha activated NF-kappaB mediated transactivation of HIV-1 LTR Luc in 5.1 cells at 100 uM; assay type: functional, cell-based
[4] = tested on: Human immunodeficiency virus; assay: Inhibition of HIV replication by recombinant virus assay; assay type: functional, organism-based
[5] = tested on: Human immunodeficiency virus; assay: Specificity against NF-kappaB and Tat proteins assessed by activity in Hela Tet-ON assay; assay type: functional
[6] = molecular target: T1, Protein Tat (Human immunodeficiency virus type 1 group M subtype B (isolate PCV12)(HIV-1)) (UniProt P04326); assay: Inhibition of Tat activity in HeLa cells transfected with Tat-Luc at 100 uM; assay type: functional, cell-based
T1 sequence (whole entry): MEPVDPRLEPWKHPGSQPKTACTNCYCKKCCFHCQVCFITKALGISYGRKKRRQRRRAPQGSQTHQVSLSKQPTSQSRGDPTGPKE

Sequence of Nuclear factor NF-kappa-B complex (Homo sapiens) (P19838 whole entry, looked up): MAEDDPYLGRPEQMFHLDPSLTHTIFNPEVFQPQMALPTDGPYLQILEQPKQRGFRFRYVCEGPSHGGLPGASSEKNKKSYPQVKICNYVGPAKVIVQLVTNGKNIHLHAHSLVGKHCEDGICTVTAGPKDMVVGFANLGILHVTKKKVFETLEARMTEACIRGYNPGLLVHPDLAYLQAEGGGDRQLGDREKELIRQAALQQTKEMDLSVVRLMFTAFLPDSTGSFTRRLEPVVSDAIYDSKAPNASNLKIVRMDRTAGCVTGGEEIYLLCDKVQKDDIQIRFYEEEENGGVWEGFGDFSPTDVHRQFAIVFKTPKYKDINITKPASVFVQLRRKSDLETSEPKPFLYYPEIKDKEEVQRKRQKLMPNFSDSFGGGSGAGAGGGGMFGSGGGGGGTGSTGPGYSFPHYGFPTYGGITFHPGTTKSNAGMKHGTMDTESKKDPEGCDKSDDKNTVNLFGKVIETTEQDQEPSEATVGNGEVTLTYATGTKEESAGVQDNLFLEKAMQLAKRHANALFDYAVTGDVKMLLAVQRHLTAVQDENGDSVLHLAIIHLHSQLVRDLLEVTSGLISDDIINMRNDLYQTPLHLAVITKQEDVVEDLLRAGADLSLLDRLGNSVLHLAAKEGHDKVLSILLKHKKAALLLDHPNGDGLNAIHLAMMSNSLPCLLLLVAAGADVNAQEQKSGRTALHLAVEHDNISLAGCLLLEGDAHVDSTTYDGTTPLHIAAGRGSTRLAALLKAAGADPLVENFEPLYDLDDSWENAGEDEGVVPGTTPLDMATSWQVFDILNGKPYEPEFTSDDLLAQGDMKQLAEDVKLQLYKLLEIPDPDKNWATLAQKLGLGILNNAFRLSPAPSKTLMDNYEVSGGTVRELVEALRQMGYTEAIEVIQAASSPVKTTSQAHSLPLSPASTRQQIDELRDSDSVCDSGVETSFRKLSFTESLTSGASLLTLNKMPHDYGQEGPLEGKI
Sequence of Nuclear factor NF-kappa-B complex (Homo sapiens) (Q00653 whole entry, looked up): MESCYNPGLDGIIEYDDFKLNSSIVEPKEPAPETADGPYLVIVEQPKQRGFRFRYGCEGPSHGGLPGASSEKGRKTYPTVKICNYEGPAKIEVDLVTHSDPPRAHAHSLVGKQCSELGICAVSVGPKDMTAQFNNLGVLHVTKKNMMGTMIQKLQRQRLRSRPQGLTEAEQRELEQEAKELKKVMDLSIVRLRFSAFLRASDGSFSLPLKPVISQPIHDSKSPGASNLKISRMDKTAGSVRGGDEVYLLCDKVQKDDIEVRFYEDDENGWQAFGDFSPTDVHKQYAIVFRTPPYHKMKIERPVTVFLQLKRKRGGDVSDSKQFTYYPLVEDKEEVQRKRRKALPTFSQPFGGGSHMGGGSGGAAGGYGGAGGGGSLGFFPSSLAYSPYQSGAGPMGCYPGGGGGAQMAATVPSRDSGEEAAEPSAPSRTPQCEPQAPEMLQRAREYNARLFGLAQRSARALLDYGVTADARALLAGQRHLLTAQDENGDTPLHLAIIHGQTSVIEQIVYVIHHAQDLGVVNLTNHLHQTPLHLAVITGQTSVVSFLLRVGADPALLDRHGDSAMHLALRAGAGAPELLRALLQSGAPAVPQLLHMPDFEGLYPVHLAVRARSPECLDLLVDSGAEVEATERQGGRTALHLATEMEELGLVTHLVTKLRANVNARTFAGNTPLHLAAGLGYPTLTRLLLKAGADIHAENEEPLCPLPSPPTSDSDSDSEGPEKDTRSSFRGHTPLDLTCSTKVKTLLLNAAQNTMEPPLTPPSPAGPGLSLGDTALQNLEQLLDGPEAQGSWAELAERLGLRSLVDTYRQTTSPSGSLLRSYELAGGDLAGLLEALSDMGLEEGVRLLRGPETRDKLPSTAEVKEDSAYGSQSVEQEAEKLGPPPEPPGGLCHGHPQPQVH
Sequence of Nuclear factor NF-kappa-B complex (Homo sapiens) (Q04206 whole entry, looked up): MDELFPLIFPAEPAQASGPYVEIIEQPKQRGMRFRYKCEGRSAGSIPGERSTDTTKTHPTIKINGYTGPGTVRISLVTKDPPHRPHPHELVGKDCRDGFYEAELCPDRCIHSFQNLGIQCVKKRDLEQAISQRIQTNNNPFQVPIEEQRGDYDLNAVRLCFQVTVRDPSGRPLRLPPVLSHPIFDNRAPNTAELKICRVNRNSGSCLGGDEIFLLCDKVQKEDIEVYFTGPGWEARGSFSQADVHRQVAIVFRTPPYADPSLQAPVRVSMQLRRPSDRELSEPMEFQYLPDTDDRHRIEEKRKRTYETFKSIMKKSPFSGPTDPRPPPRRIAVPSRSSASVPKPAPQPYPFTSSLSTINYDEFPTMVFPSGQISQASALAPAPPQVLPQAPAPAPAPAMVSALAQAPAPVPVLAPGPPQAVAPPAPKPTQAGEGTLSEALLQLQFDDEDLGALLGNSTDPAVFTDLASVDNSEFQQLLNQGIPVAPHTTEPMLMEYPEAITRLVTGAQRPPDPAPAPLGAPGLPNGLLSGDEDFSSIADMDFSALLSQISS

| Structure (SMILES) | Ratio CC50/IC50 [1] | CC50 [2] | inhibition [3] | pIC50 ([4]; Human immunodeficiency virus 1) | Activity [5] | inhibition [6] | pIC50 [4] |
| --- | --- | --- | --- | --- | --- | --- | --- |
| OC1(Cc2ccccc2Cl)c2ccccc2C2=NCCCN21 (stereo not drawn) | 1.2 | 78.6 µM | 99.7% | 4.18 | inactive | < 0% | – |
| CSc1ccc(/C=C2\OC(=O)c3ccccc32)cc1 | >8 | > 187 µM | 86.7% | 4.63 | Active | 89.7% | – |
| C=CCn1nc(Cc2ccc(OC)cc2)c2ccccc2c1=O | 2.3 | 68.6 µM | 50% | 4.52 | inactive | 2.9% | – |
| Cn1nc(Cc2cccc3ccccc23)c2ccccc2c1=O | 5.7 | 62.9 µM | 100% | 4.96 | Active | 43.2% | – |
| O=C1O/C(=C\c2ccc(Cl)cc2)c2cc(Cl)c(Cl)cc21 | >3.4 | > 154 µM | 3.2% | 4.34 | – | < 0% | – |
| Cn1nc(Cc2ccccc2Cl)c2ccccc2c1=O | >8.2 | > 176 µM | 73% | 4.67 | inactive | 18.3% | – |
| Cc1ccc2c(c1)/C(=C/c1ccc(Cl)cc1)OC2=O | – | – | 96.8% | 4.80 | Active | 91.8% | – |
| O=C1O/C(=C\c2cccc3ccccc23)c2ccccc21 | – | – | < 0% | < 4.30 | – | 6.5% | – |
| Oc1nnc(Cc2ccccc2Cl)c2cc(Cl)c(Cl)cc12 | >6.7 | > 147 µM | 65.9% | 4.66 | inactive | 11.2% | – |
| O=c1c2ccccc2c(Cc2ccc(Cl)cc2)nn1-c1ccc([N+](=O)[O-])cc1 | 1.1 | 96.3 µM | 54.8% | 4.05 | inactive | 29.6% | – |
| CSc1ccc(CC2(O)c3ccccc3C3=NCCCN32)cc1 (stereo not drawn) | 2.3 | 142 µM | 99.8% | 4.21 | inactive | 13.9% | – |
| OC1(Cc2ccc(Cl)cc2Cl)c2ccccc2C2=NCCN21 (stereo not drawn) | 6.3 | 87.5 µM | < 0% | 4.86 | inactive | 86.6% | – |
| COc1cc(Cc2nnc(O)c3ccccc23)cc(OC)c1OC | 2.6 | 135 µM | 96.5% | 4.29 | inactive | < 0% | – |
| O=c1c2ccccc2c(Cc2ccc(Cl)cc2)nn1-c1ccc(Br)cc1 | 1 | 91.8 µM | < 0% | 4.06 | – | < 0% | – |
| CCCCn1nc(Cc2ccc(OC)c(OC)c2)c2ccccc2c1=O | 4.4 | 70.3 µM | 83% | 4.80 | Active | 6.7% | – |
| Oc1nnc(Cc2ccccc2Cl)c2ccccc12 | >4.5 | > 185 µM | 67.3% | 4.38 | inactive | 29.8% | – |
| O=C1O/C(=C\c2ccc3c(c2)OCO3)c2ccccc21 | 11.3 | 138 µM | 91.8% | 4.91 | Active | 87.2% | – |
| Cc1ccc2c(c1)/C(=C/c1ccccc1Cl)OC2=O | >1.4 | > 185 µM | 71% | – | inactive | < 0% | 3.88 |
| Oc1nnc(Cc2ccc(Cl)c(Cl)c2)c2cc(Cl)c(Cl)cc12 | 3.3 | 64.7 µM | 14.9% | 4.71 | – | 28.4% | – |

| Structure (SMILES) | Ratio CC50/IC50 [1] | CC50 [2] | inhibition [3] | pIC50 ([4]; Human immunodeficiency virus 1) | Activity [5] | inhibition [6] | pIC50 [4] |
| --- | --- | --- | --- | --- | --- | --- | --- |
| COc1ccc(Cc2nnc(O)c3ccccc23)cc1 | >9.5 | > 149 µM | 12.6% | 4.80 | – | < 0% | – |
| Cn1nc(Cc2ccc3ccccc3c2)c2ccccc2c1=O | 3.5 | 57.2 µM | 99.9% | 4.78 | Active | 11.8% | – |
| O=c1c2ccccc2c(Cc2ccc(Cl)cc2)nn1-c1ccccc1 | 1.2 | 67.7 µM | 86.4% | 4.23 | inactive | < 0% | – |
| COc1ccc(/C=C2\OC(=O)c3ccccc32)cc1 | – | – | 87.6% | 4.84 | Active | 74% | – |
| COc1ccc(CC2(O)c3ccccc3C3=NCCCN32)cc1 (stereo not drawn) | >2.2 | > 162 µM | < 0% | 4.13 | – | 3.8% | – |
| CC(C)(C)n1nc(Cc2ccc(Cl)cc2)c2ccccc2c1=O | 5.6 | 72.1 µM | 82.1% | 4.89 | inactive | 11.5% | – |
| Oc1nnc(Cc2ccc(Cl)cc2Cl)c2ccccc12 | 0.6 | 58 µM | 99% | 4.02 | inactive | 53.9% | – |
| OC1(Cc2ccc(Cl)c(Cl)c2)c2ccccc2C2=NCCCN21 (stereo not drawn) | 3.3 | 85.2 µM | 67.7% | 4.58 | inactive | 60% | – |
| O=C1O/C(=C\c2ccc(Cl)cc2)c2ccccc21 | >8.2 | > 195 µM | 84.8% | 4.62 | Active | 84.6% | – |
| O=C1O/C(=C\c2ccc(Cl)cc2)c2c1cccc2[N+](=O)[O-] | <0.2 | < 20.7 µM | < 0% | 3.92 | Active | 63.7% | – |
| Cn1nc(Cc2ccccc2)c2ccccc2c1=O | >3.3 | > 156 µM | 19.4% | 4.32 | – | 11.4% | – |
| OC1(Cc2ccc(Cl)cc2)c2ccccc2C2=NCCN21 (stereo not drawn) | – | > 168 µM | < 0% | 4.15 | inactive | 38.4% | – |
| O=C1O/C(=C\c2ccccc2Cl)c2ccccc21 (stereo in doubt; 1b) | >8 | > 195 µM | < 0% | – | inactive | 76.8% | 4.61 |
| OC1(Cc2ccccc2Cl)c2cc(Cl)c(Cl)cc2C2=NCCN21 (stereo not drawn) | 1.3 | 30.1 µM | 100% | 4.64 | Active | 99.6% | – |
| Cn1nc(Cc2ccc(Cl)cc2Cl)c2ccccc2c1=O | 6 | 112 µM | < 0% | 4.73 | – | 14% | – |
| Cn1nc(Cc2ccc3c(c2)OCO3)c2ccccc2c1=O | 4.8 | 131 µM | 97.2% | 4.56 | inactive | 25.5% | – |
| COc1ccc(CC2(O)c3cc(Cl)c(Cl)cc3C3=NCCN32)cc1 (stereo not drawn) | 1.6 | 44.1 µM | 100% | 4.56 | inactive | 75.3% | – |
| CCn1nc(Cc2ccc(OC)cc2)c2ccccc2c1=O | 4 | 89.5 µM | 93.5% | 4.65 | inactive | 14.2% | – |
| OC1(Cc2ccc3ccccc3c2)c2ccccc2C2=NCCCN21 (stereo not drawn) | 1.3 | 81 µM | 100% | 4.22 | inactive | 51.2% | – |
